Data: PubChem BioAssay AID2423 (Broad Institute, 2010)
Inconclusive results are not listed. Activity calls are given as the source filed them. The rule behind the calls is not given here.

Tested on: C. albicans CaCi-8 + fluconazole, Alamar Blue growth, 48 h
Assay: resistant C. albicans growth inhibition with fluconazole, dose response, CaCi-8 strain, Alamar Blue fluorescence (AID 2423)

| Structure (SMILES) | EC50 |
| --- | --- |
| O=C(O)c1cnc(-c2ccccc2)nc1Sc1ccccc1Cl | > 16000 nM (inactive) |
| O=C(CSc1nc(-c2ccccc2)cs1)Nc1nccs1 | > 16000 nM (inactive) |
| O=C(NCCNC(=O)C(c1ccccc1)c1ccccc1)c1ccco1 | > 15000 nM (inactive) |
| COc1cc(C(Nc2ccccn2)c2ccc3ccc(C)nc3c2O)cc(OC)c1O (stereo unspecified) | 2020 nM |
| Cc1ccc(-c2nc3c(Cl)cc(Cl)cc3c(=O)n2O)cc1 | 1110 nM |
| O=C(Nc1ccccc1Cl)c1ccc([N+](=O)[O-])o1 | 693 nM |
| Cn1c(N2CCOCC2)c(/C=N/OC(=O)c2ccc(F)cc2)c2ccccc21 | 630 nM |
| CCC(=O)NC(c1ccccc1OC)c1ccc2cccnc2c1O (stereo unspecified) | 999 nM |
| Cc1ccsc1/C=N/NS(=O)(=O)c1ccc([N+](=O)[O-])cc1 | 7370 nM |
| c1ccc(CC2CCN(c3ncnc4sccc34)CC2)cc1 | 1530 nM |
| O=c1[nH]c(-c2ccccn2)nc(C(F)(F)F)c1Br | 495 nM |
| CN1CCN(Cc2cc(COCc3ccccc3)c3cccnc3c2O)CC1 | 1460 nM |
| Cc1nnc(N/N=C/c2ccccn2)[nH]c1=O | 2250 nM |
| COc1ccc(C(=O)N2c3ccccc3C=CC2C#N)cc1 (stereo unspecified) | 1760 nM |
| CC(C)COCc1ccc(O)c2ncccc12 | 1470 nM |
| CCOc1ccc(C(Nc2cccnc2)c2cc(Cl)c3cccnc3c2O)cc1 (stereo unspecified) | 930 nM |
| Cc1ccc(C(=O)NC(=O)OCCn2c(C)cnc2[N+](=O)[O-])cc1 | > 16000 nM (inactive) |
| N#C/C(C(N)=O)=c1/ccc2c(c1)N1C3=C(CCCC3)CC3CCCCC31N=2 (stereo unspecified) | 3120 nM |
| N/C(Cc1ccccc1)=N\OC(=O)c1cccc2ccccc12 | 1400 nM |
| N#C/C(=C\c1ccc(O)c(O)c1)C(=O)Nc1cccc2ncccc12 | > 15000 nM (inactive) |
| Oc1ccccc1/C=N/Nc1nccnc1Cl | 1280 nM |

| Structure (SMILES) | EC50 |
| --- | --- |
| Cc1ccc2cc(C3C(C#N)=C(N)Oc4c3ccc3cccnc43)c(=O)[nH]c2c1 (stereo unspecified) | 1900 nM |
| COc1ccc(OC)c(NC(=O)c2c3c(nc4ccccc24)CCC3)c1 | 6600 nM |
| O=C(CNc1ccc2ccccc2c1)N/N=C/c1ccc([N+](=O)[O-])o1 | 1280 nM |
| N#C/C(=C\c1ccc(N2CCOCC2)cc1)c1ccccc1 | 492 nM |
| CC(=O)c1cccc(NC(=S)NC(=O)c2ccc(C)cc2)c1 | 3850 nM |
| COc1cccc2sc(Nc3nnc(-c4ccc(F)cc4)o3)nc12 | 1240 nM |
| CCCC(=O)NC(c1ccco1)c1cc([N+](=O)[O-])c2cccnc2c1O (stereo unspecified) | 840 nM |
| O=C(O)c1ccccc1-c1ccccc1C(=O)Nc1cccc(-c2nc3ccccc3o2)c1 | 2240 nM |
| COc1cc([N+](=O)[O-])cc(/C=N/NC(=O)c2ccc(NC(=O)c3ccc(C)cc3)cc2)c1O | 2340 nM |
| Cc1nc2sc(C(c3cccc(F)c3)N3CCCC(C)C3)c(O)n2n1 (stereo unspecified) | 798 nM |
| COc1ccc(NC(=O)NNC(=O)c2cc3ccccc3cc2O)cc1 | > 16000 nM (inactive) |
| COc1ccc(/C=C(/NC(=O)c2ccccc2)c2nc3ccc(Cl)cc3[nH]2)cc1OC | 2660 nM |
| O=C1CCCN1CCCN=c1c([N+](=O)[O-])nn(-c2ccc(Cl)cc2)n1O | 6120 nM |
| O=[N+]([O-])c1ccc(C2[C@H]3C(c4ccccc4)=NC4(CCCC4)N23)cc1 (stereo partly specified) | > 15000 nM (inactive) |
| O=C(NCc1ccc(Cl)cc1)c1n[nH]c([N+](=O)[O-])c1Cl | > 16000 nM (inactive) |
| CCn1c(SCC(=O)c2ccc(O)c(O)c2)nnc1-c1ccccc1OC | > 16000 nM (inactive) |
| Cc1cc(NC(=O)c2ccc([N+](=O)[O-])o2)ccc1NC(=O)c1ccco1 | 338 nM |
| O=C(/C=C/c1ccco1)Nc1cccc(-c2nc3ccccc3[nH]2)c1 | 1250 nM |
| O=C(CCS(=O)(=O)Cc1ccccc1)Nc1nnc(C(F)(F)F)s1 | 746 nM |
| CCC(=O)NC(c1ccco1)c1cc(Cl)c2cccnc2c1O (stereo unspecified) | 788 nM |
| CCN(Cc1ccccc1)S(=O)(=O)c1ccc(C(=O)Nc2nnc(-c3ccccc3OC)o2)cc1 | < 120 nM |

| Structure (SMILES) | EC50 |
| --- | --- |
| COc1ccc(O)c(/C=N/NC(=O)c2ccc(N3CCCC3=O)cc2)c1 | > 16000 nM (inactive) |
| COCCNC(=O)NC12CC3CC(CC(C3)C1)C2 | > 16000 nM (inactive) |
| Cc1ccc(C)c(NC(=S)NNC(=O)c2csc(C)c2)c1 | 704 nM |
| Cc1cc(-c2cc(C(=O)O)c3ccccc3n2)c(C)s1 | 2270 nM |
| NC1=NC[C@H](Cc2ccccc2)N1CCCCC1CCCCC1 | 7380 nM |
| COCCNC(=O)CCCn1c(=O)c2cc(OC)c(OC)cc2n(CC(=O)NCCC2=CCCCC2)c1=O | 5380 nM |
| CCCOc1ccc(C(=O)NNC(=S)NC(=O)CC)cc1 | 937 nM |
| N#CC1=C(N)Oc2c(ccc3cccnc23)C1c1cccnc1 (stereo unspecified) | 8920 nM |
| CC(=O)c1ncnn1CC(=O)c1ccc(Cl)cc1Cl | > 16000 nM (inactive) |
| O=[N+]([O-])c1ccc(O)c(Nc2ncnc3ccc(Br)cc23)c1 | 150 nM |
| O=C(COc1ccc(F)cc1)Nc1nc(-c2ccccn2)cs1 | 2230 nM |
| CCCCC(=O)NC(c1ccc(N(C)C)cc1)c1ccc2cccnc2c1O (stereo unspecified) | 707 nM |
| Cc1onc(-c2ccccc2)c1C(=O)N/N=C(\N)COc1ccc(Cl)cc1 | 14200 nM |
| Cc1ccc(-c2cn(-c3ccccc3)c3[n+]2CCCS3)cc1 | 10300 nM |
| CCN(CC)c1ccc2nc3ccccc3[n+](CC)c2c1 | 842 nM |
| CCc1cc(-c2n[nH]c(=S)n2-c2ccccc2C)cs1 | 415 nM |
| CSCCC1NC2(C(=O)Nc3c(C)cc(Cl)cc32)[C@@H]2C(=O)N(C3CCCC3)C(=O)[C@H]12 (stereo partly specified) | 10100 nM |
| O=C(O)COc1ccccc1C(Nc1cccnc1)c1cc(Cl)c2cccnc2c1O (stereo unspecified) | 9890 nM |
| O=S(=O)(c1ccc(Cl)cc1)N1CCN(Cc2ccc(O)c3ncccc23)CC1 | 2940 nM |
| O=C(NC(=S)Nc1ccccc1O)c1ccc(Cl)cc1Cl | 624 nM |
| COc1ccc(NC(=O)NC(C)c2ccccc2)cc1 (stereo unspecified) | > 16000 nM (inactive) |

| Structure (SMILES) | EC50 |
| --- | --- |
| OCCCNc1cc(-c2ccnc(Nc3cccc(Cl)c3)n2)ccn1 | 939 nM |
| CC(NC(=O)Nc1ccccc1F)C(C)(C)C (stereo unspecified) | > 16000 nM (inactive) |
| CC(C)(C)C(=O)NC(=S)NNC(=O)c1sc2ccccc2c1Cl | 360 nM |
| CCCCCc1ccc(OCCCC[n+]2ccc(C)cc2)c(CCCCC)c1 | > 16000 nM (inactive) |
| CCOC(=O)COc1ccc(S(=O)(=O)N2CCN(c3ccccc3F)CC2)cc1 | > 15000 nM (inactive) |
| O=C(Cc1cccs1)Nc1cccc(-c2nc3ccccc3[nH]2)c1 | 798 nM |
| CC(=O)O/N=C/c1c(N2CCOCC2)n(C)c2ccccc12 | 403 nM |
| [O-][n+]1cccc2c(Br)cc(Br)c(O)c21 | 652 nM |
| Cc1ccc(/C=C/C(=O)c2ccccc(=O)c2O)cc1C | 2720 nM |
| CCN1/C(=C/C(C)=C/c2sc3ccccc3[n+]2CC)Sc2ccccc21 | < 120 nM |
| O=C(/C=C/c1ccccc1)NC(=S)Nc1ccc(N2CCOCC2)c(Cl)c1 | > 16000 nM (inactive) |
| OCc1ccnc2c(O)cccc12 | > 16000 nM (inactive) |
| CCCCCCOC(=O)C[N+](C)(C)CCOC1CC2CCC1(C)C2(C)C (stereo unspecified) | 1160 nM |
| Cc1ccc(C)c(-c2nnc(NC(=O)c3ccco3)o2)c1 | 957 nM |
| COc1ccc2c(c1OC)C(=O)N1N=C(c3ccc(O)cc3)CC21 (stereo unspecified) | > 15000 nM (inactive) |
| O=C(N/N=C\c1c(O)ccc2ccccc12)c1cncc(Br)c1 | 689 nM |
| CCOC(=O)N1CCN(Cc2cc(Cl)c3cccnc3c2O)CC1 | 1910 nM |
| C/C(=N\NC(=O)c1cc2ccccc2cc1O)c1ccccn1 | 1450 nM |
